From ChEMBL document CHEMBL5096238 (J Med Chem, 2022)

target: Hepatocyte growth factor receptor (Homo sapiens, UniProt P08581); assay: Inhibition of N-terminal His/SUMO tagged wild type human c-Met (1038 to 1346 residues) transfected in Escherichia coli using Tyr06 peptide as substrate incubated for 1 hr in presence of ATP by FRET-based Z'-Lyte assay; details: not given
Sequence (P08581 whole entry, the tested form may be a part): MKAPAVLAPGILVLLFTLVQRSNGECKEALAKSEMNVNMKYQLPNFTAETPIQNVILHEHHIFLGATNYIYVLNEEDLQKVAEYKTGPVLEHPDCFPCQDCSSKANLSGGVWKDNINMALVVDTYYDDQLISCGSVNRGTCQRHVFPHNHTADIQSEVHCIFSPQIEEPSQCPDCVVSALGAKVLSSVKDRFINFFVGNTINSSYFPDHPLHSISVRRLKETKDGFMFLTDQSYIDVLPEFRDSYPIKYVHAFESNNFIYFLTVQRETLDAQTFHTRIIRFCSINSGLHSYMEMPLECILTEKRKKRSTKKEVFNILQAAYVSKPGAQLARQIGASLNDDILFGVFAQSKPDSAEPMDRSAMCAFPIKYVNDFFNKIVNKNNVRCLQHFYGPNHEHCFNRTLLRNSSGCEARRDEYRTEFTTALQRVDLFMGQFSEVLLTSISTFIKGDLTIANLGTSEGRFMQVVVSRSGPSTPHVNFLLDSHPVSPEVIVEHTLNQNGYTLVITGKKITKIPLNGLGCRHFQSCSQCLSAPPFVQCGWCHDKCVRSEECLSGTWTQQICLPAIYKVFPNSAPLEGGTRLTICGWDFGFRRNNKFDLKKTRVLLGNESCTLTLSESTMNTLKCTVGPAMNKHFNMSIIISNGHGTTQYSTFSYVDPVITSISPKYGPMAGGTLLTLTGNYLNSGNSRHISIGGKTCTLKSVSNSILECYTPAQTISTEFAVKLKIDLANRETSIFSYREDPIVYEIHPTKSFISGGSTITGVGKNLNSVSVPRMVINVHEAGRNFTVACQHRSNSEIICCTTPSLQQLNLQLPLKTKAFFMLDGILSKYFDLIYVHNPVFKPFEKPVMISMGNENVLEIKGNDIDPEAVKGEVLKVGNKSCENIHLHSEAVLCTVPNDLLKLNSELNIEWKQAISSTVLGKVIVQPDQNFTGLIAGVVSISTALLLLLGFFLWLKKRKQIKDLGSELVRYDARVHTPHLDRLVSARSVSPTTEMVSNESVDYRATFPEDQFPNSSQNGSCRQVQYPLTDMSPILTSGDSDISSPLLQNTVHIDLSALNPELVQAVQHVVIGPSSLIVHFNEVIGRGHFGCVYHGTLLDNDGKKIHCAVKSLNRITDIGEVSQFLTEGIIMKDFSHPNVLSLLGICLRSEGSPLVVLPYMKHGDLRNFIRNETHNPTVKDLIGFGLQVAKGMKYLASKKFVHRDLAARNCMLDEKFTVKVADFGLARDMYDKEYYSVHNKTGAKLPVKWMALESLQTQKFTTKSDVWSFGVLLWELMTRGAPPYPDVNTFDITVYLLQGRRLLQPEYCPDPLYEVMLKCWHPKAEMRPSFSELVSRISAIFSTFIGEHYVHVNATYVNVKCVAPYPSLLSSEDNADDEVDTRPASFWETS

Row | SMILES | IC50 [nM]
1 | CNC(=O)c1ccc(-c2ccc(=O)n(CCc3ccc4ncc(-c5cnn(CCO)c5)cc4c3)n2)cc1C(F)(F)F | 2.8
2 | CNC(=O)c1ccc(-c2ccc(=O)n(CCc3ccc4ncc(N5CCC(N6CCOCC6)CC5)cc4c3)n2)cc1C(F)(F)F | 13.2
3 | Cc1ccc(-c2ccc(=O)n(CCc3ccc4ncc(-c5cnn(C)c5)cc4c3)n2)cc1 | 8.2
4 | Cn1cc(-c2ccc(-c3ccc(=O)n(CCc4ccc5ncccc5c4)n3)cc2)cn1 | 663
5 | CNC(=O)c1ccc(-c2ccc(=O)n(CCc3ccc4ncc(N5CC6CNCC6C5)cc4c3)n2)cc1C(F)(F)F (centres undefined) | 11.4
6 | CNC(=O)c1ccc(-c2ccc(=O)n(CCc3ccc4ncc(N5CCN(C)CC5)cc4c3)n2)cc1C(F)(F)F | 10.7
7 | Cn1cc(-c2cnc3ccc(CCn4nc(-c5ccc(F)cc5)ccc4=O)cc3c2)cn1 | 18.3
8 | Cn1cc(-c2cnc3ccc(Cn4nc(-c5ccccc5)ccc4=O)cc3c2)cn1 | 138
9 | Cn1cc(-c2cnc3ccc(CCn4nc(-c5cc(F)c(F)c(F)c5)ccc4=O)cc3c2)cn1 | 7.6
10 | Cn1cc(-c2cnc3ccc(CCn4nc(-c5cccc(OC(F)(F)F)c5)ccc4=O)cc3c2)cn1 | 20.4
11 | CNC(=O)c1ccc(-c2ccc(=O)n(NC(=O)c3ccc4ncc(-c5cnn(C)c5)cc4c3)n2)cc1C(F)(F)F | 2280
12 | O=c1ccc(-c2ccccc2)nn1Cc1ccc2ncccc2c1 | > 10000
13 | Cn1cc(-c2cnc3ccc(CCn4nc(-c5ccc(C(=O)O)c(C(F)(F)F)c5)ccc4=O)cc3c2)cn1 | 5.8
14 | CNC(=O)c1ccc(-c2ccc(=O)n(CCOc3ccc4ncc(-c5cnn(C)c5)cc4c3)n2)cc1C(F)(F)F | 78.6
15 | CNC(=O)c1ccc(-c2ccc(=O)n(CCc3ccc4ncc(-c5cnn(C)c5)cc4c3)n2)cc1 | 4
16 | Cn1cc(-c2cnc3ccc(CCn4nc(-c5cccc(Cl)c5)ccc4=O)cc3c2)cn1 | 4.9
17 | Cn1cc(-c2cnc3ccc(CCn4nc(-c5cccc(N)c5)ccc4=O)cc3c2)cn1 | 8.7
18 | COC(=O)c1ccc(-c2ccc(=O)n(CCc3ccc4ncc(-c5cnn(C)c5)cc4c3)n2)cc1 | 7.5
19 | CNC(=O)c1ccc(-c2ccc(=O)n(CCc3ccc4ncc(-c5cnn(CCOC)c5)cc4c3)n2)cc1C(F)(F)F | 7.4
20 | O=c1ccc(-c2ccccc2)nn1CCc1ccc2ncc(N3CCOCC3)cc2c1 | 41.6
21 | CNC(=O)c1ccc(-c2ccc(=O)n(CCc3ccc4ncc(N5CCC(N6CCN(C)CC6)CC5)cc4c3)n2)cc1C(F)(F)F | 13.9
22 | CNC(=O)c1ccc(-c2ccc(=O)n(CCc3ccc4ncc(NCCN5CCCCC5)cc4c3)n2)cc1C(F)(F)F | 26.4
23 | CNC(=O)c1ccc(-c2ccc(=O)n(CC(F)(F)c3ccc4ncc(-c5cnn(C)c5)cc4c3)n2)cc1C(F)(F)F | 9.9
24 | COc1cccc(-c2ccc(=O)n(CCc3ccc4ncc(-c5cnn(C)c5)cc4c3)n2)c1 | 14.7

Row | SMILES | IC50 [nM]
25 | CNC(=O)c1ccc(-c2ccc(=O)n(/C=C/c3ccc4ncc(-c5cnn(C)c5)cc4c3)n2)cc1C(F)(F)F | 35.6
26 | Cn1cc(-c2ccc(-c3ccc(=O)n(Cc4ccc5ncccc5c4)n3)cc2)cn1 | > 10000
27 | Cc1cccc(-c2ccc(=O)n(CCc3ccc4ncc(-c5cnn(C)c5)cc4c3)n2)c1 | 8.9
28 | O=c1ccc(-c2ccc(N3CCOCC3)cc2)nn1CCc1ccc2ncccc2c1 | 208
29 | Cn1cc(-c2cnc3ccc(CCn4nc(-c5ccc(C(=O)O)cc5)ccc4=O)cc3c2)cn1 | 10.1
30 | O=c1ccc(-c2ccc(N3CCOCC3)cc2)nn1Cc1ccc2ncccc2c1 | > 10000
31 | CNC(=O)c1ccc(-c2ccc(=O)n(CCc3ccc4ncc(N5CCC(N6CCCC6)CC5)cc4c3)n2)cc1C(F)(F)F | 14.3
32 | Cn1cc(-c2cnc3ccc(CCn4nc(-c5ccccc5F)ccc4=O)cc3c2)cn1 | 25.9
33 | Cn1cc(-c2cnc3ccc(CCn4nc(-c5cccc(Br)c5)ccc4=O)cc3c2)cn1 | 6.8
34 | Cn1cc(-c2cnc3ccc(CCn4nc(-c5cccc([N+](=O)[O-])c5)ccc4=O)cc3c2)cn1 | 15.1
35 | Cn1cc(-c2cnc3ccc(CCn4nc(-c5cccc(C(F)(F)F)c5)ccc4=O)cc3c2)cn1 | 5.4
36 | O=c1ccc(-c2ccccc2)nn1Cc1ccc2ncc(N3CCOCC3)cc2c1 | 171
37 | O=c1ccc(-c2ccccc2)nn1CCc1ccc2ncccc2c1 | 2000
38 | CNC(=O)c1ccc(-c2ccc(=O)n(CCc3ccc4ncc(-c5cnn(C6CCNCC6)c5)cc4c3)n2)cc1C(F)(F)F | 4.2
39 | CNC(=O)c1ccc(-c2ccc(=O)n(CCc3ccc4ncc(-c5cnn(CCN6CCOCC6)c5)cc4c3)n2)cc1C(F)(F)F | 5
40 | Cn1cc(-c2cnc3ccc(CCn4nc(-c5cccc(C#N)c5)ccc4=O)cc3c2)cn1 | 10.5
41 | COC(=O)c1ccc(-c2ccc(=O)n(CCc3ccc4ncc(-c5cnn(C)c5)cc4c3)n2)cc1C(F)(F)F | 4
42 | CNC(=O)c1ccc(-c2ccc(=O)n(CCc3ccc4ncc(-c5cnn(C)c5)cc4c3)n2)cc1C(F)(F)F | 4.8
43 | Cn1cc(-c2cnc3ccc(CCn4nc(-c5ccccc5)ccc4=O)cc3c2)cn1 | 14.9
44 | CNC(=O)c1ccc(-c2ccc(=O)n(CCc3ccc4ncc(NCCN5CCOCC5)cc4c3)n2)cc1C(F)(F)F | 18.4
45 | Cn1cc(-c2cnc3ccc(CCn4nc(-c5ccc(F)c(F)c5)ccc4=O)cc3c2)cn1 | 13.2
46 | Cn1cc(-c2cnc3ccc(CCn4nc(-c5cccc(F)c5)ccc4=O)cc3c2)cn1 | 10.6
47 | CNC(=O)c1ccc(-c2ccc(=O)n(CCc3ccc4ncc(-c5cn[nH]c5)cc4c3)n2)cc1C(F)(F)F | 6.7

tested on: Hs746T; assay: cells; details: Homo sapiens, 120 h

Row | SMILES | IC50 [nM]
48 | CNC(=O)c1ccc(-c2ccc(=O)n(CCc3ccc4ncc(-c5cnn(CCO)c5)cc4c3)n2)cc1C(F)(F)F | 115
49 | CNC(=O)c1ccc(-c2ccc(=O)n(CCc3ccc4ncc(N5CCC(N6CCOCC6)CC5)cc4c3)n2)cc1C(F)(F)F | 93.4
50 | Cc1ccc(-c2ccc(=O)n(CCc3ccc4ncc(-c5cnn(C)c5)cc4c3)n2)cc1 | 281
51 | CNC(=O)c1ccc(-c2ccc(=O)n(CCc3ccc4ncc(N5CC6CNCC6C5)cc4c3)n2)cc1C(F)(F)F (centres undefined) | 212
52 | CNC(=O)c1ccc(-c2ccc(=O)n(CCc3ccc4ncc(N5CCN(C)CC5)cc4c3)n2)cc1C(F)(F)F | 199
53 | Cn1cc(-c2cnc3ccc(CCn4nc(-c5ccc(F)cc5)ccc4=O)cc3c2)cn1 | 488
54 | Cn1cc(-c2cnc3ccc(CCn4nc(-c5cc(F)c(F)c(F)c5)ccc4=O)cc3c2)cn1 | 228
55 | Cn1cc(-c2cnc3ccc(CCn4nc(-c5cccc(OC(F)(F)F)c5)ccc4=O)cc3c2)cn1 | 1440
56 | CNC(=O)c1ccc(-c2ccc(=O)n(NC(=O)c3ccc4ncc(-c5cnn(C)c5)cc4c3)n2)cc1C(F)(F)F | 10000
57 | Cn1cc(-c2cnc3ccc(CCn4nc(-c5ccc(C(=O)O)c(C(F)(F)F)c5)ccc4=O)cc3c2)cn1 | 4300
58 | CNC(=O)c1ccc(-c2ccc(=O)n(CCOc3ccc4ncc(-c5cnn(C)c5)cc4c3)n2)cc1C(F)(F)F | 447
59 | CNC(=O)c1ccc(-c2ccc(=O)n(CCc3ccc4ncc(-c5cnn(C)c5)cc4c3)n2)cc1 | 137
60 | Cn1cc(-c2cnc3ccc(CCn4nc(-c5cccc(Cl)c5)ccc4=O)cc3c2)cn1 | 303
61 | Cn1cc(-c2cnc3ccc(CCn4nc(-c5cccc(N)c5)ccc4=O)cc3c2)cn1 | 623
62 | COC(=O)c1ccc(-c2ccc(=O)n(CCc3ccc4ncc(-c5cnn(C)c5)cc4c3)n2)cc1 | 1900
63 | CNC(=O)c1ccc(-c2ccc(=O)n(CCc3ccc4ncc(-c5cnn(CCOC)c5)cc4c3)n2)cc1C(F)(F)F | 45.9
64 | CNC(=O)c1ccc(-c2ccc(=O)n(CCc3ccc4ncc(N5CCC(N6CCN(C)CC6)CC5)cc4c3)n2)cc1C(F)(F)F | 47.8
65 | CNC(=O)c1ccc(-c2ccc(=O)n(CCc3ccc4ncc(NCCN5CCCCC5)cc4c3)n2)cc1C(F)(F)F | 428
66 | CNC(=O)c1ccc(-c2ccc(=O)n(CC(F)(F)c3ccc4ncc(-c5cnn(C)c5)cc4c3)n2)cc1C(F)(F)F | 38.5

Row | SMILES | IC50 [nM]
67 | COc1cccc(-c2ccc(=O)n(CCc3ccc4ncc(-c5cnn(C)c5)cc4c3)n2)c1 | 1360
68 | CNC(=O)c1ccc(-c2ccc(=O)n(/C=C/c3ccc4ncc(-c5cnn(C)c5)cc4c3)n2)cc1C(F)(F)F | 3010
69 | Cc1cccc(-c2ccc(=O)n(CCc3ccc4ncc(-c5cnn(C)c5)cc4c3)n2)c1 | 328
70 | Cn1cc(-c2cnc3ccc(CCn4nc(-c5ccc(C(=O)O)cc5)ccc4=O)cc3c2)cn1 | 2500
71 | CNC(=O)c1ccc(-c2ccc(=O)n(CCc3ccc4ncc(N5CCC(N6CCCC6)CC5)cc4c3)n2)cc1C(F)(F)F | 22.8
72 | Cn1cc(-c2cnc3ccc(CCn4nc(-c5ccccc5F)ccc4=O)cc3c2)cn1 | 638
73 | Cn1cc(-c2cnc3ccc(CCn4nc(-c5cccc(Br)c5)ccc4=O)cc3c2)cn1 | 436
74 | Cn1cc(-c2cnc3ccc(CCn4nc(-c5cccc([N+](=O)[O-])c5)ccc4=O)cc3c2)cn1 | 331
75 | Cn1cc(-c2cnc3ccc(CCn4nc(-c5cccc(C(F)(F)F)c5)ccc4=O)cc3c2)cn1 | 112
76 | CNC(=O)c1ccc(-c2ccc(=O)n(CCc3ccc4ncc(-c5cnn(C6CCNCC6)c5)cc4c3)n2)cc1C(F)(F)F | 20.1
77 | CNC(=O)c1ccc(-c2ccc(=O)n(CCc3ccc4ncc(-c5cnn(CCN6CCOCC6)c5)cc4c3)n2)cc1C(F)(F)F | 187
78 | Cn1cc(-c2cnc3ccc(CCn4nc(-c5cccc(C#N)c5)ccc4=O)cc3c2)cn1 | 130
79 | COC(=O)c1ccc(-c2ccc(=O)n(CCc3ccc4ncc(-c5cnn(C)c5)cc4c3)n2)cc1C(F)(F)F | 102
80 | CNC(=O)c1ccc(-c2ccc(=O)n(CCc3ccc4ncc(-c5cnn(C)c5)cc4c3)n2)cc1C(F)(F)F | 11.9
81 | CNC(=O)c1ccc(-c2ccc(=O)n(CCc3ccc4ncc(NCCN5CCOCC5)cc4c3)n2)cc1C(F)(F)F | 375
82 | Cn1cc(-c2cnc3ccc(CCn4nc(-c5ccc(F)c(F)c5)ccc4=O)cc3c2)cn1 | 708
83 | Cn1cc(-c2cnc3ccc(CCn4nc(-c5cccc(F)c5)ccc4=O)cc3c2)cn1 | 397
84 | CNC(=O)c1ccc(-c2ccc(=O)n(CCc3ccc4ncc(-c5cn[nH]c5)cc4c3)n2)cc1C(F)(F)F | 106
